In article PMC5578959, “Selective LRRK2 kinase inhibition reduces phosphorylation of endogenous Rab10 and Rab12 in human peripheral mononuclear blood cells” (Scientific Reports, 2017):

Columns and labels:
Experiment in all cases: KiNativ profiling in human PBMCs
Format in all cases: binding
FER = system: T1, FER
T1 construct: purchased ActivX Technologies (KiNativ)
Description: (§1) Compounds were shipped to ActivX Technologies (San Diego, US) where LRRK2 target engagement and broad kinase profiling was performed using KiNativ™ procedures. Live cell treatment of human peripheral blood mononuclear cells (PBMCs) at two compound concentrations (1 µM and 0.1 µM) were used to evaluate and compare in vitro target engagement and kinase selectivity, respectively (see Supplementary File 1).

Erk1 = system: T2, Erk1; details: Lys2
T2 construct: purchased ActivX Technologies (KiNativ)
Description: as §1

CaMKK2 = system: T3, CaMKK2
T3 construct: purchased ActivX Technologies (KiNativ)
Description: as §1

ABL,ARG = system: ABL,ARG
Description: as §1

IRE1 = system: T4, IRE1; details: Lys2
T4 construct: purchased ActivX Technologies (KiNativ)
Description: as §1

KHS1 = system: T5, KHS1; details: Lys1
T5 construct: purchased ActivX Technologies (KiNativ)
Description: as §1

ULK1 = system: T6, ULK1; details: Lys2
T6 construct: purchased ActivX Technologies (KiNativ)
Description: as §1

CK1g2 = system: T7, CK1g2; details: Lys2
T7 construct: purchased ActivX Technologies (KiNativ)
Description: as §1

TAO2 = system: T8, TAO2; details: Lys2
T8 construct: purchased ActivX Technologies (KiNativ)
Description: as §1

MARK2,MARK3 = details: Lys2
Description: as §1

MSK2 domain1 = system: T9, MSK2 domain1; details: Lys2
T9 construct: MSK2 domain1; purchased ActivX Technologies (KiNativ)
Description: as §1

NEK7 = system: T10, NEK7; details: Lys1
T10 construct: purchased ActivX Technologies (KiNativ)
Description: as §1

STLK6 = system: T11, STLK6
T11 construct: purchased ActivX Technologies (KiNativ)
Description: as §1

PKCa,PKCb = details: Lys2
Description: as §1

PI4KB = system: T12, PI4KB; details: ATP
T12 construct: purchased ActivX Technologies (KiNativ)
Description: as §1

CaMK2g = system: T13, CaMK2g; details: Lys1
T13 construct: purchased ActivX Technologies (KiNativ)
Description: as §1

TAO1,TAO3 = details: Lys2
Description: as §1

YANK3 = system: T14, YANK3; details: Lys2
T14 construct: purchased ActivX Technologies (KiNativ)
Description: as §1

SMG1 = system: T15, SMG1; details: ATP
T15 construct: purchased ActivX Technologies (KiNativ)
Description: as §1

MARK2 = system: T16, MARK2; details: Lys1
T16 construct: purchased ActivX Technologies (KiNativ)
Description: as §1

PITSLRE = system: T17, PITSLRE; details: Lys2
T17 construct: purchased ActivX Technologies (KiNativ)
Description: as §1

PCTAIRE1,PCTAIRE3 = details: Lys2
Description: as §1

IKKe,TBK1 = details: Lys2
Description: as §1

BTK = system: T18, BTK
T18 construct: purchased ActivX Technologies (KiNativ)
Description: as §1

MAP2K5 = system: T19, MAP2K5
T19 construct: purchased ActivX Technologies (KiNativ)
Description: as §1

JAK1 domain2 = system: T20, JAK1 domain2
T20 construct: JAK1 domain2; purchased ActivX Technologies (KiNativ)
Description: as §1

PKR = system: T21, PKR
T21 construct: purchased ActivX Technologies (KiNativ)
Description: as §1

CSK = system: T22, CSK
T22 construct: purchased ActivX Technologies (KiNativ)
Description: as §1

FGR = system: T23, FGR; details: Activation Loop
T23 construct: purchased ActivX Technologies (KiNativ)
Description: as §1

CDC2 = system: T24, CDC2; details: Lys2
T24 construct: purchased ActivX Technologies (KiNativ)
Description: as §1

IKKa = system: T25, IKKa; details: Lys2
T25 construct: purchased ActivX Technologies (KiNativ)
Description: as §1

CaMK1d = system: T26, CaMK1d
T26 construct: purchased ActivX Technologies (KiNativ)
Description: as §1

LYN = system: T27, LYN
T27 construct: purchased ActivX Technologies (KiNativ)
Description: as §1

CDK7 = system: T28, CDK7; details: Lys2
T28 construct: purchased ActivX Technologies (KiNativ)
Description: as §1

LCK = system: T29, LCK; details: Activation Loop
T29 construct: purchased ActivX Technologies (KiNativ)
Description: as §1

OSR1 = system: T30, OSR1; details: Lys2
T30 construct: purchased ActivX Technologies (KiNativ)
Description: as §1

Cn1cc(-c2c[nH]c3ncnc(N4CCOCC4)c23)cc1C#N [PFE-360]
% Inhibition (FER; 0.1µM, Activation Loop): 10% | % Inhibition (FER; 0.1µM, Lys1): -2% | % Inhibition (FER; 1µM, Activation Loop): 4.9% | % Inhibition (FER; 1µM, Lys1): -3.4% | % Inhibition (Erk1; 0.1µM): 7.7% | % Inhibition (Erk1; 1µM): 3.7% | % Inhibition (CaMKK2; 0.1µM, Lys1): -23.9% | % Inhibition (CaMKK2; 0.1µM, Lys2): -16.3% | % Inhibition (CaMKK2; 1µM, Lys1): -1.2% | % Inhibition (CaMKK2; 1µM, Lys2): 4.6% | % Inhibition (ABL,ARG; 0.1µM, Activation Loop): -15.2% | % Inhibition (ABL,ARG; 0.1µM, Lys1): -22.4% | % Inhibition (ABL,ARG; 1µM, Activation Loop): -0.3% | % Inhibition (ABL,ARG; 1µM, Lys1): 1.3% | % Inhibition (IRE1; 0.1µM): -14.5% | % Inhibition (IRE1; 1µM): 10.8% | % Inhibition (KHS1; 0.1µM): 1.1% | % Inhibition (KHS1; 1µM): -9.3% | % Inhibition (ULK1; 0.1µM): 9.8% | % Inhibition (ULK1; 1µM): 4.2% | % Inhibition (CK1g2; 0.1µM): -2% | % Inhibition (CK1g2; 1µM): -13.3% | % Inhibition (TAO2; 0.1µM): 1.1% | % Inhibition (TAO2; 1µM): -26.1% | % Inhibition (MARK2,MARK3; 0.1µM): -16.2% | % Inhibition (MARK2,MARK3; 1µM): 16.7% | % Inhibition (MSK2 domain1; 0.1µM): 2.2% | % Inhibition (MSK2 domain1; 1µM): 1.9% | % Inhibition (NEK7; 0.1µM): 2.8% | % Inhibition (NEK7; 1µM): 11.7% | % Inhibition (STLK6; 0.1µM, Lys1): -3.3% | % Inhibition (STLK6; 0.1µM, Lys2): 11.8% | % Inhibition (STLK6; 1µM, Lys1): -20.6% | % Inhibition (STLK6; 1µM, Lys2): -10.2% | % Inhibition (PKCa,PKCb; 0.1µM): -32.8% | % Inhibition (PKCa,PKCb; 1µM): -10.6% | % Inhibition (PI4KB; 0.1µM, peptide LLSVIVKCGDDLRQELLAFQVLK): -14.7% | % Inhibition (PI4KB; 0.1µM, peptide VPHTQAVVLNSKDK): 3.6% | % Inhibition (PI4KB; 1µM, peptide LLSVIVKCGDDLRQELLAFQVLK): -10.6% | % Inhibition (PI4KB; 1µM, peptide VPHTQAVVLNSKDK): -12.4% | % Inhibition (CaMK2g; 0.1µM): 11.1% | % Inhibition (CaMK2g; 1µM): 9.2% | % Inhibition (TAO1,TAO3; 0.1µM): -0.2% | % Inhibition (TAO1,TAO3; 1µM): -14.3% | % Inhibition (YANK3; 0.1µM): 8.2% | % Inhibition (YANK3; 1µM): 13.5% | % Inhibition (SMG1; 0.1µM, peptide DTVTIHSVGGTITILPTKTKPK): -4.6% | % Inhibition (SMG1; 0.1µM, peptide SYPYLFKGLEDLHLDER): 7% | % Inhibition (SMG1; 1µM, peptide DTVTIHSVGGTITILPTKTKPK): -3% | % Inhibition (SMG1; 1µM, peptide SYPYLFKGLEDLHLDER): -11.6% | % Inhibition (MARK2; 0.1µM): -8.9% | % Inhibition (MARK2; 1µM): 2.3% | % Inhibition (PITSLRE; 0.1µM): -3.8% | % Inhibition (PITSLRE; 1µM): -18.7% | % Inhibition (PCTAIRE1,PCTAIRE3; 0.1µM): 1.3% | % Inhibition (PCTAIRE1,PCTAIRE3; 1µM): 11.4% | % Inhibition (IKKe,TBK1; 0.1µM): -25.5% | % Inhibition (IKKe,TBK1; 1µM): 16% | % Inhibition (BTK; 0.1µM, Activation Loop): -5.6% | % Inhibition (BTK; 0.1µM, Lys1): -12.3% | % Inhibition (BTK; 1µM, Activation Loop): -15.5% | % Inhibition (BTK; 1µM, Lys1): 2.1% | % Inhibition (MAP2K5; 0.1µM, Lys1): 4.7% | % Inhibition (MAP2K5; 0.1µM, Lys2): -4.6% | % Inhibition (MAP2K5; 1µM, Lys1): -10.3% | % Inhibition (MAP2K5; 1µM, Lys2): 31.9% | % Inhibition (JAK1 domain2; 0.1µM, Activation Loop): -1.9% | % Inhibition (JAK1 domain2; 0.1µM, Lys1): 0% | % Inhibition (JAK1 domain2; 1µM, Activation Loop): -10.1% | % Inhibition (JAK1 domain2; 1µM, Lys1): -13.8% | % Inhibition (PKR; 0.1µM, Activation Loop): -1.7% | % Inhibition (PKR; 0.1µM, Lys2): -0.1% | % Inhibition (PKR; 1µM, Activation Loop): -6.6% | % Inhibition (PKR; 1µM, Lys2): -9.3% | % Inhibition (CSK; 0.1µM, Activation Loop): -3.4% | % Inhibition (CSK; 0.1µM, Lys1): 0.7% | % Inhibition (CSK; 1µM, Activation Loop): -10.5% | % Inhibition (CSK; 1µM, Lys1): -10.4% | % Inhibition (FGR; 0.1µM): -2.5% | % Inhibition (FGR; 1µM): -6.6% | % Inhibition (CDC2; 0.1µM, peptide DLKPQNLLIDDK): -1.5% | % Inhibition (CDC2; 0.1µM, peptide DLKPQNLLIDDKGTIK): -4.2% | % Inhibition (CDC2; 1µM, peptide DLKPQNLLIDDK): 4.1% | % Inhibition (IKKa; 0.1µM): 17.9% | % Inhibition (IKKa; 1µM): 15.8% | % Inhibition (CaMK1d; 0.1µM, Lys1): 8% | % Inhibition (CaMK1d; 0.1µM, Lys2): 6.4% | % Inhibition (CaMK1d; 1µM, Lys1): -1.5% | % Inhibition (CaMK1d; 1µM, Lys2): 20.2% | % Inhibition (LYN; 0.1µM, Activation Loop): 7.3% | % Inhibition (LYN; 0.1µM, Lys1): -30.4% | % Inhibition (LYN; 1µM, Activation Loop): 7.8% | % Inhibition (LYN; 1µM, Lys1): 7.4% | % Inhibition (CDK7; 0.1µM): 5% | % Inhibition (CDK7; 1µM): -4.6% | % Inhibition (LCK; 0.1µM): -11.6% | % Inhibition (LCK; 1µM): -0.3% | % Inhibition (OSR1; 0.1µM): -20.9% | % Inhibition (OSR1; 1µM): -5.1%
